Assay results: patent publication US20230129258A1, “HETEROTANDEM BICYCLIC PEPTIDE COMPLEXES” (BicycleTx Limited, priority 2019, published 2023)
Like-named read-outs stand apart in the source and are kept apart here. Starred links: 1 amine or outer side, 2 acyl side, 3 side chain; linkers in the order of their positions; H or OH if unused. Positions of bridges follow the written chain, without caps; N, C: chain ends. Non-standard residues stand in square brackets, D forms with d. Chains are numbered I, II in the order given. ξ: configuration not given here. X1 = O=C(CCOCCOCCOCCN(CCOCCOCCOCCn1cc(CCC(=O)[*:2])nn1)CCOCCOCCOCCn1cc(CCC(=O)[*:3])nn1)[*:1]; X3 = O=C(CCc1cn(CCOCCOCCOCCN(CCOCCOCCOCCC(=O)[*:3])CCOCCOCCOCCn2cc(CCC(=O)[*:2])nn2)nn1)[*:1]; X2 = O=C(CCSCCC(=O)[*:1])N1CN(C(=O)CC[*:2])CN(C(=O)CC[*:3])C1; TATA = O=C(CC[*:1])N1CN(C(=O)CC[*:2])CN(C(=O)CC[*:3])C1; ξDip = NC(C(=O)O)C(c1ccccc1)c1ccccc1; Hyp = O=C(O)[C@@H]1C[C@@H](O)CN1; hArg = N=C(N)NCCCC[C@H](N)C(=O)O; tBuAla = CC(C)(C)C[C@H](N)C(=O)O; Nle = CCCC[C@H](N)C(=O)O; Mpa = O=C(O)CCS

Key:
[1] = Pharmacokinetics in SD rats; type: in vivo; conditions: rat, IV Inf (15 minutes); for half-life: iv, read-out: T1/2 (converted); for clearance: read-out: Clp; for Vd: read-out: Vdss
Description: Male SD Rats were dosed with each heterotandem Bicycle peptide complex formulated in 25 mM Histidine HCl, 10% sucrose pH 7 by IV bolus or IV infusion (15 minutes). Serial bleeding (about 80 μL blood/time point) was performed via submandibular or saphenous vein at each time point. All blood samples were immediately transferred into prechilled microcentrifuge tubes containing 2 μL K2-EDTA (0.5M) as anti-coagulant and placed on wet ice. Blood samples were immediately processed for plasma by centrifugation at approximately 4° C., 3000 g. The precipitant including internal standard was immediately added into the plasma, mixed well and centrifuged at 12,000 rpm, 4° C. for 10 minutes. The supernatant was transferred into pre-labeled polypropylene microcentrifuge tubes, and then quick-frozen over dry ice. The samples were stored at […] or below as needed until analysis. 7.5 μL of the supernatant samples were directly injected for LC-MS/MS analysis using an Orbitrap Q Exactive in positive ion mode to determine the concentrations of analyte. Plasma concentration versus time data were analyzed by non-compartmental approaches using the Phoenix WinNonlin 6.3 software program. C0, CI, Vdss, T½, AUC(0-last), AUC(0-inf), MRT(0-last), MRT(0-inf) and graphs of plasma concentration versus time profile were reported.

[2] = test system: MC38 tumors; assay: Anti-tumor activity of EphA2/CD137 complexes in syngeneic MC38 tumor model; type: in vivo, C57BL/6J-hCD137 mice; conditions: day 28
Description: 6-8 weeks old C57BL/6J-hCD137 female mice were inoculated in the flank with 1×10^6 syngeneic MC38 cells. When tumors reached 76 mm^3 size on average, mice were randomized to receive vehicle or BCY12491 (intraperitoneal administration). BCY12491 was administered (n=6 mice/treatment cohort) at either 5 mg/kg or 15 mg/kg either daily (QD) or every three days (Q3D). QD dosed mice received 22 doses of BCY12491 and Q3D dosed mice received 8 doses of BCY12491. Tumor growth was monitored by caliper measurements until day 73 after treatment initiation. The results of this experiment may be seen in FIG. 9 where it can be seen that the effect of BCY12491 on tumor growth becomes apparent in the first two weeks of the dosing period reducing the tumor growth and causing reduction of volumes of many of the treated tumors. By day 41, 15 out of 24 BCY12491 treated animals had completely responded to the treatment and had no palpable tumors left.
6-8 week old female C57BL/6J-hCD137 mice [B-hTNFRSF9(CD137) mice; Biocytogen] were implanted subcutaneously with 1×10^6 MC38 cells. Mice were randomized into treatment groups (n=6/cohort) when average tumor volumes reached around 76 mm^3 and were treated with daily doses of vehicle (25 mM histidine, 10% sucrose, pH7). BCY12491 treatment was conducted at two different dose levels (5 and 15 mg/kg) and two different dosing schedules (QD: daily; Q3D: every three days). Animals received either 22 QD doses or 8 Q3D doses intraperitoneally (ip). Tumor growth was monitored until tumor reached volumes over 2000 mm^3 or until 73 days after treatment initiation. After Day 73, 5 complete responder animals were re-challenged with MC38 tumor cell implantation alongside with 5 naïve C57BL/6J-hCD137 mice. Tumor growth was monitored for 20 days.
(§1) 6-8 week old female C57BL/6J-hCD137 mice [B-hTNFRSF9(CD137) mice; Biocytogen] were implanted subcutaneously with 1×10^6 MC38 cells. Mice were randomized into treatment groups (n=6/cohort) when average tumor volumes reached around 92 mm^3 and were treated intravenously with Q3D doses of vehicle (25 mM histidine, 10% sucrose, pH7), 15 mg/kg of BCY12730, BCY12723 or BCY12491 (7 Q3D doses). Tumor growth was monitored for 28 days or until tumors exceeded 2000 mm^3.
as §1, with “76” for “92”, “twice weekly (BIW)” for “Q3D”, “5” for “15”, “BCY13048, BCY13050,” for “BCY12730, BCY12723”, “(6 BIW” for “(7 Q3D”

[3] = test system: human PBMCs; assay: Human PBMC co-culture cytokine secretion assay with EphA2-expressing tumor cells (MC38, HT-1080, HT29); type: cell-based; conditions: human PBMC-MC38 co-culture
Description: […] MC38 were cultured in Dulbecco's Modified Eagle Medium supplemented with 10% heat inactivated Fetal Bovine Serum (FBS), 1× Penicillin/Streptomycin, 10 mM HEPES, and 2 mM L-Glutamine (referred to as R10 medium). Frozen PBMCs from healthy human donors were thawed and washed once in room temperature PBS with benzonase, and then resuspended in RPMI supplemented with 10% heat inactivated Fetal Bovine Serum (FBS), 1× Penicillin/Streptomycin, 10 mM HEPES, and 2 mM L-Glutamine (herein referred to as R10 medium). 100 μl of PBMCs (1,000,000 PBMCs/ml) and 100 μl of tumor cells (100,000 tumor cells/ml) (Effector:Target cell ratio (E:T) 10:1) were plated in each well of a 96 well flat bottom plate for the co-culture assay. 100 ng/ml of soluble anti-CD3 mAb (clone OKT3) was added to the culture on day 0 to stimulate human PBMCs. Test, control compounds, or vehicle controls were diluted in R10 media and 50 μL was added to respective wells to bring the final volume per well to 250 μL. Plates were covered with a breathable film and incubated in a humidified chamber at 37° C. with 5% CO2 for two days. […] Briefly, the standards and samples were added to a black 96 well plate. Microparticle cocktail (provided in Luminex kit, R&D Systems) was added and shaken for 2 hours at room temperature. The plate was washed 3 times using a magnetic holder. Biotin cocktail was then added to the plate and shaken for 1 hour at RT. The plate was washed 3 times using a magnetic holder. Streptavidin cocktail was added to the plate and shaken for 30 minutes at RT. The plates were washed 3 times using a magnetic holder, resuspended in 100 μL of wash buffer, shaken for 2 minutes at RT, and read using the Luminex 2000. Raw data were analyzed using built-in Luminex software to generate standard curves and interpolate protein concentrations, all other data analyses and graphing were performed using Excel and Prism software. Data represents one study with three independent donor PBMCs tested in experimental duplicates.
Similarly, PBMCs from healthy donors were co-cultured with EphA2 expressing cancer cells (MC38 and HT-1080) at a ratio of 5:1 in presence of anti-CD3 and BCY13272. […]

[4] = target: CD137 (Homo sapiens, UniProt Q07011); assay: CD137 reporter assay (Promega, Jurkat cells) in co-culture with EphA2-expressing tumor cells (A549, PC3, HT29); type: cell-based; design: host or cells: Jurkat reporter cells; conditions: for Emax (fold induction over background): CD137 reporter coculture assay with PC3 tumor cells; for EC50: EC50, CD137 reporter coculture assay with PC3 tumor cells
Summary of the method: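 Readout is Bio-Glo luminescence after 6 h, 37° C co-culture of CD137 reporter Jurkat cells, target tumor cells (EphA2: A549, PC3, HT29; PD-L1: RKO) and titrated test articles in 1% FBS RPMI. EC50 (nM) and maximal induction come from fold change over untreated co-culture.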

[5] = test system: MC38 tumor tissue; assay: Immune response in MC38 tumors (nCounter transcriptional analysis, CD8 IHC); type: in vivo, C57BL/6J-hCD137 mice; conditions: Q3D x3, peptides 15 mg/kg IV, anti-CD137 2 mg/kg ip
Description: 6-8 week old female C57BL/6J-hCD137 mice [B-hTNFRSF9(CD137) mice; Biocytogen] were implanted subcutaneously with 1×10^6 MC38 cells. Mice were randomized into treatment groups when average tumor volumes reached around 240 mm^3 and were treated (n=6/treatment cohort) with vehicle (25 mM histidine, 10% sucrose, pH7) intravenously (IV), 15 mg/kg BCY12491 (EphA2: CD137 1:2 Heterotandem Complex) IV, 15 mg/kg BCY13626 (non-binding control for EphA2) IV or 2 mg/kg Anti-CD137 (urelumab analogue) intraperitoneally. All treatments were given Q3D for three doses and tumor tissues were harvested 1 hour after the last dose. Part of the tumor tissue was used for RNA isolation for transcriptional analysis and a part of the tumor tissue was used for formalin fixed paraffin embedded (FFPE) sample preparation for immunohistochemical (INC) analysis. RNA was isolated from tumor tissues using RNAeasy kit [Qiagen] and transcriptional analysis was performed using nCounter Mouse PanCancer IO 360 panel (Nanostring) from 100 ng RNA/tumor. Data was analysed using the nSolver Analysis Software (Nanostring). CD8+ tumor infiltrating cells were stained in FFPE tissue sections using anti-mouse CD8 antibody (Abcam, #ab217344) and Ventana Discovery OmniMap anti Rabbit-HRP Kit (Ventana #760 4310).

[6] = Donor 1, 48 h incubation, read-out: Donor 1 EC50 of IFNγ secretion
[7] = Donor 2, 48 h incubation, read-out: Donor 2 EC50 of IFNγ secretion

CD137, sequence (Q07011 24-255): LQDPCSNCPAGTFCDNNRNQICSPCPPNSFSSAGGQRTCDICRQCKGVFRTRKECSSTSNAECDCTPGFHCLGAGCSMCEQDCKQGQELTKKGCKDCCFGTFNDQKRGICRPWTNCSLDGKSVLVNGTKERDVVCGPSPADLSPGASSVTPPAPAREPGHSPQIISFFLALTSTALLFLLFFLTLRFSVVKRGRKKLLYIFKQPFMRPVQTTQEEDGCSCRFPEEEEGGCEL

Substance | half-life ([1]; in vivo) | clearance ([1]; in vivo) | Vd ([1]; in vivo) | complete responses ([2]; 15 mg/kg IV Q3D, 7 doses) | EC50 [3, 6] | EC50 [3, 7] | Emax (fold induction over background) [4] | EC50 [4] | CD8+ cell infiltration in tumor (IHC) [5] | T cell score in tumor tissue ([5]; vs vehicle) | cytotoxic cell score in tumor tissue ([5]; vs vehicle) | half-life ([1]; male, SD, plasma) | clearance ([1]; male, SD, plasma) | Vd ([1]; male, SD, plasma) | complete responses ([2]; 5 mg/kg IV BIW, 6 doses)
I: A[hArg]DC[Hyp]LVNPLCLHP[dD]W[hArg]C-NH2 / II: [Mpa][tBuAla]PE[dK]PYCFADPY[Nle]C-NH2 / III: [tBuAla]PE[dK]PYCFADPY[Nle]C-NH2 (linker I:4-I:11-I:18, II:1-II:8-II:15 via TATA; linker I:N-II:5-III:4 via X1; linker III:N-III:7-III:14 via X2) [BCY12730] | 2 h | 1.08 L/h/kg | 2.6 L/kg | 3 out of 6 | 0.13 nM | 0.19 nM | 61.73 | 0.25 nM | – | – | – | – | – | – | –
anti-CD137 antibody: Anti-CD137 (urelumab analogue) | – | – | – | – | – | – | – | – | Some increase in CD8+ cell infiltration | increased significantly | increased significantly | – | – | – | –
I: Ac-C[tBuAla]PE[dK]PYCFADPY[Nle]CA-NH2 / II: Ac-C[tBuAla]PE[dK]PYCFADPY[Nle]CA-NH2 / III: C[Hyp]LVNPLCL[ξDip]P[dD]WTC-NH2 (linker I:1-I:8-I:15, II:1-II:8-II:15, III:1-III:8-III:15 via TATA; linker I:5-II:5-III:N via X3) [BCY13048] | – | – | – | – | 0.3 nM | 0.24 nM | 48.35 | 0.09 nM | – | – | – | 3.8 h | 0.66 L/h/kg | 1.2 L/kg | 5 out of 6
